US20250082674A1, “METHODS OF TREATING COPPER METABOLISM-ASSOCIATED DISEASES OR DISORDERS” (priority 2021, published 2025)
Like-named read-outs stand apart in the source and are kept apart here.

Text: Adverse events were reported by the patient (or, when appropriate, by a caregiver, surrogate, or the patient's legally authorized representative). The Investigator and any qualified designees were responsible for detecting, documenting, and recording events that meet the definition of an AE or SAE and remain responsible for following up AEs that were serious, considered related to the study intervention or study procedures, or that caused the patient to discontinue the study.
Acute worsening of neurologic symptoms typically within 6 months of start of therapy is a known complication associated with chelation therapy for WD. […] Neurologic AESI for Study 301 were considered as all AEs in the Medical Dictionary for Regulatory Activities (MedDRA) System Organ Class (SOC) “Nervous system disorders” or any other AE judged by the Investigator as an AESI.

[1] = Hematological AEs, Primary Evaluation Period, Safety Set, BC-TTM N = 137, SoC N = 70
[2] = Primary Evaluation Period, 48 Weeks, BC-TTM N = 137, SoC N = 70
[3] = Primary Evaluation Period, Safety Set, BC-TTM N = 137, SoC N = 70
[4] = Study 301, Primary Evaluation Period

Bis-choline tetrathiomolybdate [BC-TTM]
Anemia, E events [1]: 7
Anemia, N participants [1]: 6
Anemia, participants (%) [1]: 4.4%
Leukopenia, E events [1]: 3
Leukopenia, N participants [1]: 2
Leukopenia, participants (%) [1]: 1.5%
Neutropenia, E events [1]: 6
Neutropenia, N participants [1]: 6
Neutropenia, participants (%) [1]: 4.4%
Neutrophil count decreased, E events [1]: 4
Neutrophil count decreased, N participants [1]: 2
Neutrophil count decreased, participants (%) [1]: 1.5%
Thrombocytopenia, E events [1]: 2
Thrombocytopenia, N participants [1]: 1
Thrombocytopenia, participants (%) [1]: 0.7%
Alanine aminotransferase increased, N participants [2]: 20
Alanine aminotransferase increased, participants (%) [2]: 14.6%
Aspartate aminotransferase increased, N participants [2]: 4
Aspartate aminotransferase increased, participants (%) [2]: 2.9%
Ear and labyrinth disorders, N participants [2]: 7
Ear and labyrinth disorders, participants (%) [2]: 5.1%
Fatigue, N participants [2]: 13
Fatigue, participants (%) [2]: 9.5%
Gamma-glutamyltransferase increased, N participants [2]: 3
Gamma-glutamyltransferase increased, participants (%) [2]: 2.2%
Hepatic enzyme increased, N participants [2]: 3
Hepatic enzyme increased, participants (%) [2]: 2.2%
Hepatobiliary disorders, N participants [2]: 9
Hepatobiliary disorders, participants (%) [2]: 6.6%
Investigations, N participants [2]: 46
Investigations, participants (%) [2]: 33.6%
Nervous system disorders, N participants [2]: 47
Nervous system disorders, participants (%) [2]: 34.3%
Neutrophil count decreased, N participants [2]: 2
Neutrophil count decreased, participants (%) [2]: 1.5%
Pruritus, N participants [2]: 5
Pruritus, participants (%) [2]: 3.6%
Psychiatric disorders, N participants [2]: 26
Psychiatric disorders, participants (%) [2]: 19.0%
Pyrexia, N participants [2]: 8
Pyrexia, participants (%) [2]: 5.8%
Rash, N participants [2]: 9
Rash, participants (%) [2]: 6.6%
Skin and subcutaneous tissue disorders, N participants [2]: 30
Skin and subcutaneous tissue disorders, participants (%) [2]: 21.9%
ALT increased, E events [3]: 25
ALT increased, N participants [3]: 20
ALT increased, participants (%) [3]: 14.6%
AST increased, E events [3]: 4
AST increased, N participants [3]: 4
AST increased, participants (%) [3]: 2.9%
GGT increased, E events [3]: 3
GGT increased, N participants [3]: 3
GGT increased, participants (%) [3]: 2.2%
Hepatic enzyme increased, E events [3]: 5
Hepatic enzyme increased, N participants [3]: 3
Hepatic enzyme increased, participants (%) [3]: 2.2%
Hepatic function abnormal, E events [3]: 3
Hepatic function abnormal, N participants [3]: 3
Hepatic function abnormal, participants (%) [3]: 2.2%
Hyperbilirubinemia, E events [3]: 1
Hyperbilirubinemia, N participants [3]: 1
Hyperbilirubinemia, participants (%) [3]: 0.7%
Hypertransaminasemia, E events [3]: 4
Hypertransaminasemia, N participants [3]: 2
Hypertransaminasemia, participants (%) [3]: 1.5%
Jaundice, E events [3]: 1
Jaundice, N participants [3]: 1
Jaundice, participants (%) [3]: 0.7%
LFT abnormal, E events [3]: 2
LFT abnormal, N participants [3]: 2
LFT abnormal, participants (%) [3]: 1.5%
LFT increased, E events [3]: 4
LFT increased, N participants [3]: 4
LFT increased, participants (%) [3]: 2.9%
Liver disorder, E events [3]: 1
Liver disorder, N participants [3]: 1
Liver disorder, participants (%) [3]: 0.7%
ALT increased as share of treatment-emergent adverse events (25/577) (Study 301): 4.3%
incidence of AE ALT increased (Study 301): 14.6%
incidence of SAEs, Nervous system disorders (Study 301): 4.4%
incidence of hematologic AEs, BC-TTM versus SoC (Study 301): similar
participants with Grade 4 AEs, Nervous system disorders (Study 301): 1 participant
participants with Grade 5 AEs, Nervous system disorders (Study 301): 1 participant
participants with highest severity Grade 1 AEs, Nervous system disorders (Study 301): 24.1%
participants with highest severity Grade 2 AEs, Nervous system disorders (Study 301): 13.9%
participants with neurologic AESI in the SOC Psychiatric disorders (Study 301): 3.6%
AEs in SOC Ear and labyrinth disorders [4]: 5.1%
AEs in SOC Hepatobiliary disorders [4]: 6.6%
AEs in SOC Investigations [4]: 33.6%
AEs in SOC Psychiatric disorders [4]: 19.0%
AEs in SOC Skin and subcutaneous tissue disorders [4]: 21.9%
incidence of AEs in the SOC Nervous system disorders [4]: 34.3%
incidence of headache [4]: 8.0%
incidence of tremor [4]: 7.3%
participants discontinued due to AE of anemia (Grade 1) (clinical program for BC-TTM): 1 participant
participants discontinued due to AE of neutropenia (Grade 2) (clinical program for BC-TTM): 1 participant
overall safety profile (participants with WD): acceptable safety profile and is generally well-tolerated
